Assay results: patent US20050148633A1 (priority 2003, published 2005)

What was measured:
IL-2 = experiment: Cytokine inhibition in PHA-stimulated primary human PBMCs: IL-2; type: cell-based; conditions: PBMC
Experimental: (§1) Cytokine production was measured using commercially available human ELISA assay kits (from Cell Science, Inc.) following the manufacturers instructions.

[1] = tested on: CRAC ion channel (ICRAC current); experiment: Patch clamp inhibition of ICRAC current in primary T cells; type: cell-based; conditions: primary human T cells, varying concentrations
Experimental: Membrane currents of individual cells were recorded using the whole-cell configuration of the patch clamp technique with an EPC10 (HEKA Electronik, Lambrecht, Germany). Electrodes (2-5 MD in resistance) were fashioned from borosilicate glass capillary tubes (Sutter Instruments, Novato, Ca). The recordings were done at room temperature.
ICRAC currents were monitored every 2 seconds using a 50 msec protocol, where the voltage was ramped from −100 mV to +100 mV. The membrane potential was held at 0 mV between the test ramps. In a typical experiment the peak inward currents would develop within 50-100 seconds. Once the ICRAC currents were stabilized, the cells were perfused with compounds in the extracellular solution. At the end of an experiment the remaining ICRAC currents were then challenged with a control compound (SKF96365, 10 μM) to ensure that the current could still be inhibited.
The ICRAC current level was determined by measuring the inward current amplitude at −80 mV of the voltage ramp in an off-line analysis using MATLAB. The ICRAC current inhibition for each concentration was calculated using peak amplitude in the beginning of the experiment from the same cell. The IC50 value and Hill coefficient for each compound was estimated by fitting all the individual data points to a single Hill equation. […]

IL-4 = experiment: Cytokine inhibition in PHA-stimulated primary human PBMCs: IL-4; type: cell-based; conditions: PBMC
Experimental: as §1

TNF-α production = TNF-α production upon PMA/ionomycin stimulation in whole blood of dosed cynomolgus monkeys; type: in vivo; conditions: IV 5 mg/kg, 4 hours after dosing
Experimental: (§2) 3 male non-native cynomolgus monkeys were fasted overnight prior to and for four (4) hours following each dose. Each monkey was given a single intravenous dose of the appropriate test compound followed by a 1 mL rinse of saline to flush the catheter. The dose was infused over one hour using calibrated syringe pumps. Following a one week washout, the same three monkeys were given a single oral gavage dose of the appropriate test compound dose formulation followed by a 10 mL flush with tap water. Following a second one week washout, the same three monkeys received a second oral dose of the appropriate test compound dose formulation followed by a 10 mL flush with tap water. Following a third one week washout, the same three monkeys received a third oral dose of the appropriate test compound dose formulation followed by a 10 mL flush with tap water. Prior to and at 1, 2, and 4 hours following each dose (measured from the start of dosing for IV doses), blood samples ([…] for Group 1 and 2 mL/sample for Groups 2 and 3) were drawn into tubes containing sodium heparin and stored at room temperature, and the concentration of the test compounds in each sample was measured. CsA was included as a positive control.

TNF-α = experiment: Cytokine inhibition in PHA-stimulated primary human PBMCs: TNF-α; type: cell-based; conditions: PBMC
Experimental: as §1

[2] = tested on: CRAC ion channel (ICRAC current); experiment: Patch clamp inhibition of ICRAC current in Jurkat cells; type: cell-based, human; conditions: 1 μM compound, n=3
Experimental: In general, a whole cell patch clamp method was used to examine the effects of a compound of the invention on a channel that mediates Icrac. In such experiments, a baseline measurement was established for a patched cell. Then a compound to be tested was perfused (or puffed) to cells in the external solution and the effect of the compound on Icrac was measured. A compound that modulates Icrac (e.g., inhibits) is a compound that is useful in the invention for modulating CRAC ion channel activity.
Jurkat T cells were grown on glass coverslips, transferred to the recording chamber and kept in a standard modified Ringers solution of the following composition: NaCl 145 mM, KCl 2.8 mM, CsCl 10 mM, CaCl2 10 mM, MgCl2 2 mM, glucose 10 mM, HEPES.NaOH 10 mM, pH 7.2.
The external solution contained 10 mM CaNaR, 11.5 mM glucose and the test compound at the concentrations described below.
The standard intracellular pipette solution contained: Cs-glutamate 145 mM, NaCl 8 mM, MgCl2 1 mM, ATP 0.5 mM, GTP 0.3 mM, pH 7.2 adjusted with CsOH. […]
Patch-clamp experiments were performed in the tight-seal whole-cell configuration at 21-25° C. […] Capacitive currents and series resistance were determined and corrected before each voltage ramp using the automatic capacitance compensation of the EPC-9. […]

IL-2 production = IL-2 production upon PMA/ionomycin stimulation in whole blood of dosed cynomolgus monkeys; type: in vivo; conditions: IV 5 mg/kg, 4 hours after dosing
Experimental: as §2

GM-CSF = experiment: Cytokine inhibition in PHA-stimulated primary human PBMCs: GM-CSF; type: cell-based; conditions: PBMC
Experimental: as §1

IL-10 = experiment: Cytokine inhibition in PHA-stimulated primary human PBMCs: IL-10; type: cell-based; conditions: PBMC
Experimental: as §1

IL-13 = experiment: Cytokine inhibition in PHA-stimulated primary human PBMCs: IL-13; type: cell-based; conditions: PBMC
Experimental: as §1

RBL cells = experiment: Inhibition of degranulation in RBL cells; type: cell-based; conditions: Rattus norvegicus, anti-DNP IgE / anti-IgE, read-out: concentration at which 50% of degranulation is inhibited
Experimental: Procedure: • The day before the assay was performed, RBL cells, that had been grown to confluence in a 96 well plate, were incubated at 37° C. for at least 2 hours. The medium was replaced in each well with 100 μL of fresh medium containing of anti-DNP IgE.
On the following day, the cells were washed once with PRS (2.6 mM glucose and 0.1% BSA) and 160 μL of PRS was added to each well. The test compound was addded to a well in a 20 μL solution at 10× of the desired concentration and incubated for 20 to 40 minutes at 37° C. 20 μL of 10× mouse anti-IgE (10 μL/mL). Maximum degranulation occurred between 15 to 40 minutes after addition of anti-IgE.

INF-γ = experiment: Cytokine inhibition in PHA-stimulated primary human PBMCs: INF-γ; type: cell-based; conditions: PBMC
Experimental: as §1

IL-5 = experiment: Cytokine inhibition in PHA-stimulated primary human PBMCs: IL-5; type: cell-based; conditions: PBMC
Experimental: as §1

IC50 (IL-2): 6 nM
IC50 (IL-4): 71 nM
IC50 (TNF-α): 68 nM
IC50 (GM-CSF): 97 nM
IC50 (IL-10): > 1000 nM
IC50 (IL-13): 51 nM
IC50 (RBL cells): 380 nM
IC50 (INF-γ): 42 nM
IC50 (IL-5): 11 nM
SMILES: COc1ccc(OC)c(-c2ccc(NC(=O)c3cccc(F)c3F)cc2)c1 [Compound 31, N-(2′,5′-Dimethoxy-biphenyl-4-yl)-2,3-difluoro-benzamide]
inhibition of ICRAC current in primary T cells compared with RBL cells (FIG. 1) [1]: inhibits ICRAC current equally well in primary T cells as in RBL cells
TNF-α production after IV infusion (FIG. 4) (TNF-α production): significantly inhibit TNF-α production
inhibition of Icrac in Jurkat cells [2]: > 43%
IL-2 production after IV infusion (FIG. 3) (IL-2 production): significantly inhibit IL-2 production
